In patent US12441757B2, “Platform for screening NAD+ binding proteins in a cellular context” (OREGON HEALTH & SCIENCE UNIVERSITY, priority 2020, dated 2025):

What was measured:
PARP-1 = target: T1, PARP-1 (Homo sapiens, UniProt P09874); experiment: Competition labeling of PARP-1 by 2-ad-BAD; format: binding
T1 construct: Full length His6-PARP-1 and His6-SUMO-PARP-10 proteins we expressed and purified; His6 (N); made in house
From the text: (§1) FIG. 8. Densitometry analyses of FIG. 3A panels (A,B) comparing the inhibitory effect of nucleotides and (B) panels (C,D) comparing inhibitory effect of PARP inhibitors on PARP-1 and PARP-10 labelling by 2-ad-BAD. TAMRA in-gel fluorescence was normalized to Coomassie staining, except for PARP-1 NAD^+ treated samples where relative to control TAMRA signal is reported due to auto-PARylation induced molecular weight shift and therefore not detectable Coomassie signal at PARP-1 molecular weight of ˜110 kDa. Data are mean±SEM of 3 independent experiments.
(§2) Treatments. Recombinant PARP-1 (250 nM), PARP-10 (250 nM) or AK1 (500 nM; Novus Biologicals) were diluted in 100 mM NaCl, 50 mM HEPES [pH 7.4], 4 mM MgCl2, 0.2 mM TCEP. PARP-1 reactions also contained 10 μg/mL of activated calf thymus DNA (Sigma-Aldrich D4522), unless otherwise noted. In experiments reported in FIG. 2, the samples were treated with 0.1 μM 2-ad-BAD or ad-olaparib for 10 min. In competition experiments reported in FIG. 3 and Figure S3, samples were first treated with 150 μM of indicated nucleotides for 10 minute and then with 0.3 μM 2-ad-BAD for additional 10 min. All treatments occurred at RT. Samples were then kept in the dark or irradiated for 5 min in the RPR-100 Photochemical Reactor (Rayonet) equipped with 350 nm lamps at 4° C.
(§3) Click Chemistry. 25 μL of each sample was mixed with 5 μL of fatty acid free BSA and SDS to give a final Click reaction concentration of 1 mg/mL and 1%, respectively. Click reactions were started by adding 15 μL of PBS based 3× click reaction mix (final 1× concentrations shown): 100 μM Tris[(1-benzyl-1H-1,2,3triazol-4-yl)methyl]amine (TBTA, Click Chemistry Tools), 1 mM CuSO4, 40 μM tetramethylrhodamine (TAMRA)-azide (Click Chemistry Tools), 1 mM Tris(2-carboxyethyl)phosphine hydrochloride (TCEP, Thermo Fisher) and 5% tert-Butyl alcohol to each sample, and let to proceed for 1 h at RT while gently shaking. Reactions were stopped by adding 4× Laemmli sample buffer and boiling at 95° C. for 5 min.
(§4) In gel fluorescence and staining. Samples were loaded to 10 or 12% SDS-polyacrylamide gels and run until the dye front left the gel. In-gel fluorescence was detected with ChemiDoc XRS+ (Biorad) using Rhodamine filter and then the gels were stained with Coomassie blue or Silver using standard protocols.

PARP-10 = target: T2, PARP-10 (Homo sapiens, UniProt Q53GL7); experiment: Competition labeling of PARP-10 by 2-ad-BAD; format: binding
T2 construct: Full length His6-PARP-1 and His6-SUMO-PARP-10 proteins we expressed and purified; His6 (N); SUMO (N); made in house
T2 sequence (Q53GL7 1-1025): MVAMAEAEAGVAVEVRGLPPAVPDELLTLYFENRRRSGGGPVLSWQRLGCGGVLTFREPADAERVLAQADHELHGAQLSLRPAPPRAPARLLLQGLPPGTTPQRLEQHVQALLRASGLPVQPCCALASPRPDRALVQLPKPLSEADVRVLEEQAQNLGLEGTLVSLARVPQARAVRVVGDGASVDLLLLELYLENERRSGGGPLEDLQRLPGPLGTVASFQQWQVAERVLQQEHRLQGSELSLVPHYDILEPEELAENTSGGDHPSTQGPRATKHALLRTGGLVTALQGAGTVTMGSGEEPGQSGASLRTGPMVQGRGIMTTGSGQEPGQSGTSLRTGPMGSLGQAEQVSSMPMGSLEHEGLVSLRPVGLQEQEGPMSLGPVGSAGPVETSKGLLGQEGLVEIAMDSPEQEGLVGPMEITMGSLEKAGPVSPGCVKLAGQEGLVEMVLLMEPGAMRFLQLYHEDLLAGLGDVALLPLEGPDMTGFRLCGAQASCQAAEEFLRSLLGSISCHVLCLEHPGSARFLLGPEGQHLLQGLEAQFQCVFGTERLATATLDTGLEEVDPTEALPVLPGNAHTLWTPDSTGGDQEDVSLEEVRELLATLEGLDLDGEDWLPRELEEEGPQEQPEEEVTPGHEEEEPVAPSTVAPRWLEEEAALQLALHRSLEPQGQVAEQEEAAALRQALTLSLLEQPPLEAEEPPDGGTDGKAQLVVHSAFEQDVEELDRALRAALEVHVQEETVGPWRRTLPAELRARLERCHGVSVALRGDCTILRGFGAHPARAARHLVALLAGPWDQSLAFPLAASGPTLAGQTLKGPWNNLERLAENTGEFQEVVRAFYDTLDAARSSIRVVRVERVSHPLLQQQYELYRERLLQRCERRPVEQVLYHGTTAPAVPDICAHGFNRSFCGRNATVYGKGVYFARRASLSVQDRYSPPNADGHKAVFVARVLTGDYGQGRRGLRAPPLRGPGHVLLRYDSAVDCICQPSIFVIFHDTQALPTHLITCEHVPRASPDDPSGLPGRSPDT
From the text: as §1, §2, §3, §4

[1] = 150 μM nucleotide, 0.3 μM 2-ad-BAD

T1 sequence (P09874 whole entry): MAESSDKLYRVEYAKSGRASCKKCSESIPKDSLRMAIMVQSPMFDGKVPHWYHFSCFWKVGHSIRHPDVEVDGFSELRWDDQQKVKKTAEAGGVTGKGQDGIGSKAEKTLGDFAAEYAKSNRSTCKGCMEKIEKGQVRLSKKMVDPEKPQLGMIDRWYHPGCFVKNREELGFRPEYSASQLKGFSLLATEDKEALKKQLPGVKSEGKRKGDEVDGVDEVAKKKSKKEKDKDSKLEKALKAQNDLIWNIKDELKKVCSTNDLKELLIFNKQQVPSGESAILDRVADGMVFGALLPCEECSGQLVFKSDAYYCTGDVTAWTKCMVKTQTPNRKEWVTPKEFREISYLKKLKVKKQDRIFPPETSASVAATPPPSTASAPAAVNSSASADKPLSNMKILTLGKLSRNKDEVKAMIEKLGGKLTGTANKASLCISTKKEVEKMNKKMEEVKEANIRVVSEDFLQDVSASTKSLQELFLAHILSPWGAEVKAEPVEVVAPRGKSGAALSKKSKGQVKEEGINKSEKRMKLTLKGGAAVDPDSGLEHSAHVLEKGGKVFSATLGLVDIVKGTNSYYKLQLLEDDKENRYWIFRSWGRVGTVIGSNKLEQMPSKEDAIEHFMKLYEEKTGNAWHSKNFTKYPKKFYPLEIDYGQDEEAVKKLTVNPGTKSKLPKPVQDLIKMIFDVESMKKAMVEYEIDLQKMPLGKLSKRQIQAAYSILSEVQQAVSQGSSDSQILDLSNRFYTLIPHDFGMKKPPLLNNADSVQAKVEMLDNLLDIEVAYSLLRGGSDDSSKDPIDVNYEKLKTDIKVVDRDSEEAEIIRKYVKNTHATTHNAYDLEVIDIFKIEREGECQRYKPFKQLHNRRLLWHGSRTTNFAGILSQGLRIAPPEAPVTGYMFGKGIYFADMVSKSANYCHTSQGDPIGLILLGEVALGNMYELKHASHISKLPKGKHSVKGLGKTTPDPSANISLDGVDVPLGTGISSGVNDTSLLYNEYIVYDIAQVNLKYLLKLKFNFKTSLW

NC(=O)c1cccc([C@@H]2O[C@H](COP(=O)(O)OP(=O)(O)OC[C@H]3O[C@@H](n4cnc5c(N)ncnc54)[C@H](O)[C@@H]3O)[C@@H](O)[C@H]2O)c1 [BAD, benzamide adenine dinucleotide]
block of 2-ad-BAD labeling of PARP-1 by nucleotides (PARP-1; [1]): reduced
dose-dependent block of 2-ad-BAD labeling of PARP-1 (PARP-1; competitor dose series): dose-dependently block the labeling of PARP-1
block of 2-ad-BAD labeling of PARP-10 by nucleotides (PARP-10; [1]): reduced
dose-dependent block of 2-ad-BAD labeling of PARP-10 (PARP-10; competitor dose series): dose-dependently block the labeling of PARP-10
